# Measurements reported in ChEMBL document CHEMBL1149819, “Synthesis and in vivo anti-mutagenic activity of novel melatonin derivatives” (2008).
# Columns and labels:
# Details in all cases: route intragastric
# Mus musculus [1] = assay: Antimutagenic activity against cyclophosphamide-induced mutagenicity in mouse brain assessed as cholinesterase activity per microgram of tissue at 18.38 mg/kg administered intragastrically for 1 week; type: functional
# Mus musculus [2] = assay: Antimutagenic activity against cyclophosphamide-induced mutagenicity in Albino mouse testes assessed as DNA level per gram of tissue at 18.38 mg/kg administered intragastrically for 1 week; type: functional, Testis
# Mus musculus [3] = assay: Antimutagenic activity against cyclophosphamide-induced mutagenicity in Albino mouse kidney assessed as DNA level per gram of tissue at 18.38 mg/kg administered intragastrically for 1 week; type: functional
# Mus musculus [4] = assay: Antimutagenic activity in mouse brain assessed as cholinesterase activity per microgram of tissue at 18.38 mg/kg administered intragastrically for 1 week; type: functional
# Mus musculus [5] = assay: Antimutagenic activity in Albino mouse liver assessed as DNA level per gram of tissue at 18.38 mg/kg administered intragastrically for 1 week; type: functional
# Mus musculus [6] = assay: Antimutagenic activity in Albino mouse kidney assessed as RNA level per gram of tissue at 18.38 mg/kg administered intragastrically for 1 week; type: functional
# Mus musculus [7] = assay: Antimutagenic activity against cyclophosphamide-induced mutagenicity in Albino mouse kidney assessed as RNA level per gram of tissue at 18.38 mg/kg administered intragastrically for 1 week; type: functional
# Mus musculus [8] = assay: Antimutagenic activity against cyclophosphamide-induced mutagenicity in mouse testes assessed as protein level per gram of tissue at 18.38 mg/kg administered intragastrically for 1 week; type: functional, Testis
# Mus musculus [9] = assay: Antimutagenic activity against cyclophosphamide-induced mutagenicity in mouse brain assessed as peroxidase activity per microgram of tissue at 18.38 mg/kg administered intragastrically for 1 week; type: functional
# Mus musculus [10] = assay: Antimutagenic activity in mouse liver assessed as protein level per gram of tissue at 18.38 mg/kg administered intragastrically for 1 week; type: functional
# Mus musculus [11] = assay: Antimutagenic activity against cyclophosphamide-induced mutagenicity in Albino mouse testes assessed as RNA level per gram of tissue at 18.38 mg/kg administered intragastrically for 1 week; type: functional, Testis
# Mus musculus [12] = assay: Antimutagenic activity in mouse kidney assessed as protein level per gram of tissue at 18.38 mg/kg administered intragastrically for 1 week; type: functional
# Mus musculus [13] = assay: Antimutagenic activity in mouse brain assessed as peroxidase activity per microgram of tissue at 18.38 mg/kg administered intragastrically for 1 week; type: functional
# Mus musculus [14] = assay: Antimutagenic activity against cyclophosphamide-induced mutagenicity in Albino mouse liver assessed as RNA level per gram of tissue at 18.38 mg/kg administered intragastrically for 1 week; type: functional
# Mus musculus [15] = assay: Antimutagenic activity in Albino mouse testes assessed as RNA level per gram of tissue at 18.38 mg/kg administered intragastrically for 1 week; type: functional, Testis
# Mus musculus [16] = assay: Antimutagenic activity in Albino mouse brain assessed as DNA level per gram of tissue at 18.38 mg/kg administered intragastrically for 1 week; type: functional
# Mus musculus [17] = assay: Antimutagenic activity against cyclophosphamide-induced mutagenicity in mouse liver assessed as protein level per gram of tissue at 18.38 mg/kg administered intragastrically for 1 week; type: functional
# Mus musculus [18] = assay: Antimutagenic activity in Albino mouse liver assessed as RNA level per gram of tissue at 18.38 mg/kg administered intragastrically for 1 week; type: functional
# Mus musculus [19] = assay: Antimutagenic activity against cyclophosphamide-induced mutagenicity in Albino mouse liver assessed as DNA level per gram of tissue at 18.38 mg/kg administered intragastrically for 1 week; type: functional
# Mus musculus [20] = assay: Antimutagenic activity in mouse brain assessed as protein level per gram of tissue at 18.38 mg/kg administered intragastrically for 1 week; type: functional
# Mus musculus [21] = assay: Antimutagenic activity against cyclophosphamide-induced mutagenicity in mouse brain assessed as protein level per gram of tissue at 18.38 mg/kg administered intragastrically for 1 week; type: functional
# Mus musculus [22] = assay: Antimutagenic activity in Albino mouse kidney assessed as DNA level per gram of tissue at 18.38 mg/kg administered intragastrically for 1 week; type: functional
# Mus musculus [23] = assay: Inhibition of cyclophosphamide-induced increase in micronuclei/polychromatic erythrocytes count in mouse at 14.16 mg/kg administered intragastrically for 1 week by micronuclei assay; type: functional; set-up: scale not given: the % may be the effect or the level left
# Mus musculus [24] = assay: Antimutagenic activity against cyclophosphamide-induced mutagenicity in Albino mouse brain assessed as RNA level per gram of tissue at 18.38 mg/kg administered intragastrically for 1 week; type: functional
# Mus musculus [25] = assay: Antimutagenic activity against cyclophosphamide-induced mutagenicity in mouse kidney assessed as protein level per gram of tissue at 18.38 mg/kg administered intragastrically for 1 week; type: functional
# Mus musculus [26] = assay: Antimutagenic activity against cyclophosphamide-induced mutagenicity in Albino mouse brain assessed as DNA level per gram of tissue at 18.38 mg/kg administered intragastrically for 1 week; type: functional
# Mus musculus [27] = assay: Antimutagenic activity in Albino mouse brain assessed as RNA level per gram of tissue at 18.38 mg/kg administered intragastrically for 1 week; type: functional
# Mus musculus [28] = assay: Antimutagenic activity in Albino mouse testes assessed as DNA level per gram of tissue at 18.38 mg/kg administered intragastrically for 1 week; type: functional, Testis
# Mus musculus [29] = assay: Inhibition of cyclophosphamide-induced increase in micronuclei/polychromatic erythrocytes count in mouse at 23.04 mg/kg administered intragastrically for 1 week by micronuclei assay; type: functional; set-up: scale not given: the % may be the effect or the level left
# Mus musculus [30] = assay: Antimutagenic activity against cyclophosphamide-induced mutagenicity in mouse kidney assessed as protein level per gram of tissue at 23.04 mg/kg administered intragastrically for 1 week; type: functional
# Mus musculus [31] = assay: Antimutagenic activity in Albino mouse brain assessed as DNA level per gram of tissue at 23.04 mg/kg administered intragastrically for 1 week; type: functional
# Mus musculus [32] = assay: Antimutagenic activity against cyclophosphamide-induced mutagenicity in mouse brain assessed as protein level per gram of tissue at 23.04 mg/kg administered intragastrically for 1 week; type: functional
# Mus musculus [33] = assay: Antimutagenic activity against cyclophosphamide-induced mutagenicity in Albino mouse brain assessed as RNA level per gram of tissue at 23.04 mg/kg administered intragastrically for 1 week; type: functional
# Mus musculus [34] = assay: Antimutagenic activity in mouse brain assessed as protein level per gram of tissue at 23.04 mg/kg administered intragastrically for 1 week; type: functional
# Mus musculus [35] = assay: Antimutagenic activity against cyclophosphamide-induced mutagenicity in mouse brain assessed as peroxidase activity per microgram of tissue at 23.04 mg/kg administered intragastrically for 1 week; type: functional
# Mus musculus [36] = assay: Antimutagenic activity against cyclophosphamide-induced mutagenicity in mouse testes assessed as protein level per gram of tissue at 23.04 mg/kg administered intragastrically for 1 week; type: functional, Testis
# Mus musculus [37] = assay: Antimutagenic activity in Albino mouse testes assessed as RNA level per gram of tissue at 23.04 mg/kg administered intragastrically for 1 week; type: functional, Testis
# Mus musculus [38] = assay: Antimutagenic activity against cyclophosphamide-induced mutagenicity in Albino mouse liver assessed as RNA level per gram of tissue at 23.04 mg/kg administered intragastrically for 1 week; type: functional
# Mus musculus [39] = assay: Antimutagenic activity against cyclophosphamide-induced mutagenicity in Albino mouse kidney assessed as RNA level per gram of tissue at 23.04 mg/kg administered intragastrically for 1 week; type: functional
# Mus musculus [40] = assay: Antimutagenic activity against cyclophosphamide-induced mutagenicity in Albino mouse kidney assessed as DNA level per gram of tissue at 23.04 mg/kg administered intragastrically for 1 week; type: functional
# Mus musculus [41] = assay: Antimutagenic activity in mouse brain assessed as peroxidase activity per microgram of tissue at 23.04 mg/kg administered intragastrically for 1 week; type: functional
# Mus musculus [42] = assay: Antimutagenic activity against cyclophosphamide-induced mutagenicity in Albino mouse testes assessed as DNA level per gram of tissue at 23.04 mg/kg administered intragastrically for 1 week; type: functional, Testis
# Mus musculus [43] = assay: Antimutagenic activity in Albino mouse testes assessed as DNA level per gram of tissue at 23.04 mg/kg administered intragastrically for 1 week; type: functional, Testis
# Mus musculus [44] = assay: Antimutagenic activity against cyclophosphamide-induced mutagenicity in Albino mouse brain assessed as DNA level per gram of tissue at 23.04 mg/kg administered intragastrically for 1 week; type: functional
# Mus musculus [45] = assay: Antimutagenic activity in Albino mouse kidney assessed as RNA level per gram of tissue at 23.04 mg/kg administered intragastrically for 1 week; type: functional
# Mus musculus [46] = assay: Antimutagenic activity in mouse brain assessed as cholinesterase activity per microgram of tissue at 23.04 mg/kg administered intragastrically for 1 week; type: functional
# Mus musculus [47] = assay: Antimutagenic activity against cyclophosphamide-induced mutagenicity in mouse liver assessed as protein level per gram of tissue at 23.04 mg/kg administered intragastrically for 1 week; type: functional
# Mus musculus [48] = assay: Antimutagenic activity in Albino mouse liver assessed as RNA level per gram of tissue at 23.04 mg/kg administered intragastrically for 1 week; type: functional
# Mus musculus [49] = assay: Antimutagenic activity in mouse liver assessed as protein level per gram of tissue at 23.04 mg/kg administered intragastrically for 1 week; type: functional
# Mus musculus [50] = assay: Antimutagenic activity against cyclophosphamide-induced mutagenicity in Albino mouse liver assessed as DNA level per gram of tissue at 23.04 mg/kg administered intragastrically for 1 week; type: functional
# Mus musculus [51] = assay: Antimutagenic activity against cyclophosphamide-induced mutagenicity in Albino mouse testes assessed as RNA level per gram of tissue at 23.04 mg/kg administered intragastrically for 1 week; type: functional, Testis
# Mus musculus [52] = assay: Antimutagenic activity in mouse kidney assessed as protein level per gram of tissue at 23.04 mg/kg administered intragastrically for 1 week; type: functional
# Mus musculus [53] = assay: Antimutagenic activity in Albino mouse kidney assessed as DNA level per gram of tissue at 23.04 mg/kg administered intragastrically for 1 week; type: functional
# Mus musculus [54] = assay: Antimutagenic activity in Albino mouse liver assessed as DNA level per gram of tissue at 23.04 mg/kg administered intragastrically for 1 week; type: functional
# Mus musculus [55] = assay: Antimutagenic activity against cyclophosphamide-induced mutagenicity in mouse brain assessed as cholinesterase activity per microgram of tissue at 23.04 mg/kg administered intragastrically for 1 week; type: functional
# Mus musculus [56] = assay: Antimutagenic activity in Albino mouse brain assessed as RNA level per gram of tissue at 23.04 mg/kg administered intragastrically for 1 week; type: functional
smiles,measurement,setting,value
COc1ccc2c(c1)c(CCNC(C)=O)c1sc(-c3sc(N)c(C#N)c3N)nn12,Activity,Mus musculus [1],2.85 U
same,Activity,Mus musculus [2],0.3 mg
same,Activity,Mus musculus [3],0.35 mg
same,Activity,Mus musculus [4],3.76 U
same,Activity,Mus musculus [5],0.33 mg
same,Activity,Mus musculus [6],0.28 mg
same,Activity,Mus musculus [7],0.24 mg
same,Activity,Mus musculus [8],3.11 g
same,Activity,Mus musculus [9],4.1 U/min
same,Activity,Mus musculus [10],9.81 g
same,Activity,Mus musculus [11],0.2 mg
same,Activity,Mus musculus [12],7.17 g
same,Activity,Mus musculus [13],6.3 U/min
same,Activity,Mus musculus [14],0.49 mg
same,Activity,Mus musculus [15],0.27 mg
same,Activity,Mus musculus [16],0.35 mg
same,Activity,Mus musculus [17],9.26 g
same,Activity,Mus musculus [18],0.46 mg
same,Activity,Mus musculus [19],0.29 mg
same,Activity,Mus musculus [20],2.76 g
same,Activity,Mus musculus [21],2.53 g
same,Activity,Mus musculus [22],0.34 mg
same,Activity,Mus musculus [23],44%
same,Activity,Mus musculus [24],0.16 mg
same,Activity,Mus musculus [25],4.14 g
same,Activity,Mus musculus [26],0.22 mg
same,Activity,Mus musculus [27],0.19 mg
same,Activity,Mus musculus [28],0.35 mg
COc1ccc2c(c1)c(CCNC(C)=O)c1sc(-c3c(-c4ccccc4)cnn(-c4ccccc4)c3=N)nn12,Activity,Mus musculus [29],65%
same,Activity,Mus musculus [30],4.96 g
same,Activity,Mus musculus [31],0.37 mg
same,Activity,Mus musculus [32],3.15 g
same,Activity,Mus musculus [33],0.17 mg
same,Activity,Mus musculus [34],3.2 g
same,Activity,Mus musculus [35],5.5 U/min
same,Activity,Mus musculus [36],4.31 g
same,Activity,Mus musculus [37],0.36 mg
same,Activity,Mus musculus [38],0.51 mg
same,Activity,Mus musculus [39],0.4 mg
same,Activity,Mus musculus [40],0.36 mg
same,Activity,Mus musculus [41],9.74 U/min
same,Activity,Mus musculus [42],0.31 mg
same,Activity,Mus musculus [43],0.39 mg
same,Activity,Mus musculus [44],0.25 mg
same,Activity,Mus musculus [45],0.47 mg
same,Activity,Mus musculus [46],4.21 U
same,Activity,Mus musculus [47],10.03 g
same,Activity,Mus musculus [48],0.48 mg
same,Activity,Mus musculus [49],10.23 g
same,Activity,Mus musculus [50],0.32 mg
same,Activity,Mus musculus [51],0.2 mg
same,Activity,Mus musculus [52],8.68 g
same,Activity,Mus musculus [53],0.38 mg
same,Activity,Mus musculus [54],0.35 mg
same,Activity,Mus musculus [55],3.03 U
same,Activity,Mus musculus [56],0.21 mg
